{
  "source": "paper PMC7816042",
  "about": "“Insights into the Structure-Activity Relationship of Glycosides as Positive Allosteric Modulators Acting on P2X7 Receptors” (Molecular Pharmacology, 2021)",
  "key": {"[1]": {"test_system": "THP-1 cells", "experiment": "Cell viability assay (resazurin/Alamar blue) in THP-1 cells", "type": "cell-based, human", "conditions": "500 µM ATP", "experimental": "(§1) HEK-hP2X7 or THP-1 cells were seeded at 5 × 10^3 cells per well in a volume of 100 μl for 24 hours in 96-well plates (Nunclon Edge plates, catalog number 167425; Thermo Scientific). Cells were plated in DMEM:F12 medium or RPMI 1640 medium containing 1% FBS and penicillin/streptomycin for 24 hours in a humidified incubator at 37°C with a constant supply of 5% CO2. Edge wells of the plates were filled with autoclaved distilled water to prevent evaporation of media from wells containing cells. The compounds and ATP were made at 2× final concentration in 1% FBS DMEM:F12 and 100 μl added to the cells for 24 hours. After incubation, resazurin sodium salt (CAS 62758-13-8; Sigma Aldrich) at 0.1 mg/ml in sterile PBS was added to the plate (20 into 200 µl culture medium per well). Cells were incubated for a further 2 hours in a humidified incubator at 37°C with a supply of 5% CO2. A Flexstation 3 microplate reader was used to acquire data. Endpoint fluorescence data were measured using 570 nm excitation wavelength, 600 nm emission wavelength (cutoff at 590 nm), and three reads per well (PMT low). Data were analyzed by performing background correction through subtracting blank medium readings (without cells) from all samples and then normalizing each sample to medium treated cells (control treatment, 100%) as percentage of control.\nResults are expressed as means ± S.D. from the indicated number of experiments. For YO-PRO-1 dye uptake and intracellular calcium experiments, each independent experiment used triplicate wells, and the means of the replicates were collated and plotted. Technical replicates were used to ensure reliability of fluorescence values. Cell viability data were normalized to the vehicle control for each experiment after background correction had been performed. […] These values were calculated from the collated data for each compound from three independent experiments. Statistical differences were determined by analysis of the data by one-way ANOVA followed by Dunnett’s multiple comparison test or Sidak’s multiple comparison test using GraphPad Prism version 7. […]"}, "[2]": {"target": "T1, human P2X7 (Homo sapiens, UniProt Q99572)", "T1 construct": "expressed in transfected cells", "T1 sequence (Q99572 1-595)": "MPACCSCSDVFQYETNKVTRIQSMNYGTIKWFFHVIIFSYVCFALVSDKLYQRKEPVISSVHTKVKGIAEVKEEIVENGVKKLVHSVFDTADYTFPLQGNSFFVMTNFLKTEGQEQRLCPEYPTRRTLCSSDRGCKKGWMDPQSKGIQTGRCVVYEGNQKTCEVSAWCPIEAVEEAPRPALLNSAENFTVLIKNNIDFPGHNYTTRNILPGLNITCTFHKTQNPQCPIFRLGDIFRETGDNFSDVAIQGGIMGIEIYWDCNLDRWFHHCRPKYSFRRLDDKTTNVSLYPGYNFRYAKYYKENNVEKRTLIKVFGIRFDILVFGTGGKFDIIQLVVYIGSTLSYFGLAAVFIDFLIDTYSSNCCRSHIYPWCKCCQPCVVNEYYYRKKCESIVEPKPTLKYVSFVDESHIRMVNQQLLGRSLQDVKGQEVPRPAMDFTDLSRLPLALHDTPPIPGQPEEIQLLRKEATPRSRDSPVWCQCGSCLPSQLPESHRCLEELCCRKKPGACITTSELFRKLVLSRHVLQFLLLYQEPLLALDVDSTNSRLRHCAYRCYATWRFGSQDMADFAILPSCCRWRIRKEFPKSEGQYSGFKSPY", "experiment": "YO-PRO-1 dye uptake assay in HEK-hP2X7 cells", "type": "cell-based", "conditions": "for Effect of AZ10606120 pretreatment on response to ATP + glycoside (P2X7 dependence): 10 µM AZ10606120 pretreatment", "experimental": "ATP-induced dye uptake experiments were performed as described previously ([Bidula et al., 2019b]). Briefly, HEK-hP2X7 cells were plated at 2 × 10^4 cells per well (100 μl per well) in complete medium and left overnight to attach to poly-D-lysine–coated 96-well plates. YO-PRO-1 iodide was prepared in a low divalent buffered solution ([…], 2 mM KCl, 13 mM D-glucose, 10 mM HEPES, 0.2 mM CaCl2 pH 7.3) to a final concentration of 2 μM. Medium was removed from the plate using a manual multichannel pipette and YO-PRO-1 containing buffer applied to wells (180 μl per well). […] A Flexstation 3 plate reader (Molecular Devices, Sunnyvale, CA) was used to record YO-PRO-1 fluorescence in HEK-hP2X7 for 300 seconds after the addition of ATP (at 10× final concentration) with/without ginsenoside compounds or vehicle (DMSO). Plates were allowed to warm up to 37°C for 10 minutes before initiating the recording. Baseline recordings were made for 40 seconds before compound addition using the Flexstation 3 fluidics system. YO-PRO-1 fluorescence was measured at 520 nm after excitation at 490 nm (auto cutoff at 495 nm), and the sample interval was 3.5 seconds. Flexstation settings were photomultiplier tube (PMT) medium, six reads per well, pipette height 170, and a rate of injection of 3. Data were acquired using Softmax Pro version 5.4 (Molecular Devices). To analyze the data, area under the dye uptake curve was calculated in Softmax Pro version 5 using zero baseline data with a lag time of 50 seconds (50–300 seconds).\n(§2) Results are expressed as means ± S.D. from the indicated number of experiments. For YO-PRO-1 dye uptake and intracellular calcium experiments, each independent experiment used triplicate wells, and the means of the replicates were collated and plotted. Technical replicates were used to ensure reliability of fluorescence values. […] Dose-response curves were plotted by a nonlinear regression fit with variable slope using GraphPad Prism software version 7. Half-maximal responses are expressed as EC50 values with 95% confidence intervals. These values were calculated from the collated data for each compound from three independent experiments. Statistical differences were determined by analysis of the data by one-way ANOVA followed by Dunnett’s multiple comparison test or Sidak’s multiple comparison test using GraphPad Prism version 7. P < 0.05 was the accepted minimum level of significance."}, "[3]": {"test_system": "HEK-hP2X7 cells", "experiment": "Cell viability assay (resazurin/Alamar blue) in HEK-hP2X7 cells", "type": "cell-based, human", "conditions": "24 hours", "experimental": "as §1\nResults are expressed as means ± S.D. from the indicated number of experiments. For YO-PRO-1 dye uptake and intracellular calcium experiments, each independent experiment used triplicate wells, and the means of the replicates were collated and plotted. Technical replicates were used to ensure reliability of fluorescence values. Cell viability data were normalized to the vehicle control for each experiment after background correction had been performed. Dose-response curves were plotted by a nonlinear regression fit with variable slope using GraphPad Prism software version 7. Half-maximal responses are expressed as EC50 values with 95% confidence intervals. These values were calculated from the collated data for each compound from three independent experiments. Statistical differences were determined by analysis of the data by one-way ANOVA followed by Dunnett’s multiple comparison test or Sidak’s multiple comparison test using GraphPad Prism version 7. P < 0.05 was the accepted minimum level of significance."}, "[4]": {"target": "T1, human P2X7", "design": "method as in Helliwell et al., 2015", "conditions": "ref Helliwell et al., 2015; cited from earlier work"}, "[5]": {"target": "T2, endogenous P2X7 in THP-1 cells (Homo sapiens, UniProt Q99572)", "T2 sequence (Q99572 1-394 limits assumed)": "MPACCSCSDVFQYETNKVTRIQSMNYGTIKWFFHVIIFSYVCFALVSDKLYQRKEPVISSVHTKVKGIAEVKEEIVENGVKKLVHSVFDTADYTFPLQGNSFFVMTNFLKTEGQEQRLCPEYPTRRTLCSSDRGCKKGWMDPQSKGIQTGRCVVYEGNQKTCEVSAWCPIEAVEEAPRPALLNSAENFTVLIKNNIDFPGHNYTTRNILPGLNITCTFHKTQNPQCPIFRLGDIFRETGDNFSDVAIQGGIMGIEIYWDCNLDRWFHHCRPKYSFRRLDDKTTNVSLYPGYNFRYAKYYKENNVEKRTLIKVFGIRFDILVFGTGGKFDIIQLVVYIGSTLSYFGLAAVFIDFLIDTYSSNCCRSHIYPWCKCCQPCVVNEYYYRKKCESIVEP", "experiment": "Fura-2 calcium measurements in THP-1 monocytes", "type": "cell-based", "conditions": "500 µM ATP co-applied with 10 µM glycoside", "experimental": "THP-1 cells were pelleted by centrifugation (300g, 5 minute), washed, and resuspended in Hanks’ balanced salt solution buffer containing 2 μM fura-2 AM (HelloBio) and 250 μM (±)-sulfinpyrazone. Cells were loaded for 1 hour in a waterbath at 37°C while shielded from light with foil. Loaded cells were washed once with 5 ml Hanks’ balanced salt solution to remove excess fura-2 AM dye. THP-1 cells were then resuspended, counted, and plated at 2 × 10^5 cells per well in a standard clear 96-well plate (NUNC 167008; Thermo Scientific) in low divalent assay buffer without Mg^2+ (145 mM NaCl, 2 mM KCl and 2 mM CaCl2, 13 mM glucose, 10 mM HEPES, pH 7.3) containing 250 μM (±)-sulfinpyrazone. The 10× concentration of agonist (ATP) was prepared in the same assay buffer. ATP was injected automatically into wells at 30 seconds in a Flexstation 3 microplate reader. Ratiometric data were acquired using 340 and 380 nm for excitation wavelengths, 520 nm as the emission wavelength, and six reads per well (PMT medium). Area under the curve was calculated using standard zero baseline normalization with a lag time 0–300 seconds using SoftMax Pro version 5.4 software.\nas §2"}, "[6]": {"test_system": "nontransfected HEK-293 cells", "experiment": "YO-PRO-1 dye uptake in parental nontransfected HEK-293 cells", "type": "cell-based, human", "conditions": "drug alone"}},
  "data": [
    {"smiles": "Nc1ncnc2c1ncn2[C@@H]1O[C@H](COP(=O)(O)OP(=O)(O)OP(=O)(O)O)[C@@H](O)[C@H]1O", "note": "[ATP, reference compound]", "values": [
      {"measurement": "Cell viability after ATP", "setting": "[1]; 24 hours", "value": "73.3% ± 14.4%"},
      {"measurement": "EC50", "setting": "[2]; average, n = 5 experiments, HEK-hP2X7, read-out: EC50 for ATP + vehicle (DMSO)", "value": 219, "unit": "µM"}
    ]},
    {"smiles": "Cl.Cl.O=C(CC12CC3CC(CC(C3)C1)C2)Nc1cccc2nc(NCCNCCO)ccc12", "note": "[AZ10606120, reference compound]", "values": [
      {"measurement": "Antagonist effect on ATP-induced loss of viability", "setting": "[1]", "value": "lack of effect"},
      {"measurement": "Antagonist effect on loss of viability by ATP + ginsenoside-F2 or 20(S)-Rg3", "setting": "[3]; AZ10606120 pretreatment", "value": "prevented"}
    ]},
    {"smiles": "CC(C)=CCCC(C)(OC1OC(CO)C(O)C(O)C1O)C1CCC2(C)C1C(O)CC1C3(C)CCC(O)C(C)(C)C3CCC12C", "note": "(stereo not shown) [Ginsenoside-CK]", "values": [
      {"measurement": "PAM activity at human P2X7", "setting": "[4]", "value": "highest activity"},
      {"measurement": "Enhancement of ATP-induced cell death", "setting": "[1]; 24 hours", "value": "could significantly enhance this ATP-induced cell death"},
      {"measurement": "Cell viability in combination with ATP", "setting": "[3]", "value": "very effective at enhancing cell death"},
      {"measurement": "Effect of AZ10606120 pretreatment on response to ATP + glycoside (P2X7 dependence)", "setting": "[2]", "value": "abolished"},
      {"measurement": "PAM effect on ATP dose-response curve", "setting": "[2]; 10 µM glycoside, HEK-hP2X7, result in words", "value": "mixed type I/II effects"},
      {"measurement": "Maximum response (fold increase)", "setting": "[2]; maximum response defined at 1 mM ATP, 10 µM glycoside", "value": "2.4–4.4 fold"},
      {"measurement": "Effect on ATP-induced calcium response", "setting": "[5]", "value": "increased the peak response and the sustained elevation in [Ca^2+]i"}
    ]},
    {"smiles": "C[C@H]1O[C@@H](O[C@H]2CC[C@@]3(C)[C@@H](CC[C@]4(C)[C@@H]3C=C[C@]35OC[C@@]6(CCC(C)(C)C[C@H]63)[C@@H](O)C[C@]54C)[C@]2(C)CO)[C@H](O)[C@@H](O[C@@H]2O[C@H](CO)[C@@H](O)[C@H](O)[C@H]2O)[C@H]1O", "note": "[Saikosaponin A, saikosaponin A]", "values": [
      {"measurement": "YO-PRO-1 uptake in nontransfected HEK-293 cells (no P2X7)", "setting": "[6]", "value": "could induce YO-PRO-1 uptake"},
      {"measurement": "Effect of AZ10606120 pretreatment on response to ATP + glycoside (P2X7 dependence)", "setting": "[2]", "value": "unaffected by AZ10606120 pretreatment"},
      {"measurement": "ATP-induced YO-PRO-1 response in fixed-concentration screen", "setting": "[2]; 200 µM ATP, 10 µM glycoside, compared with ATP + DMSO", "value": "large increase"},
      {"measurement": "Toxic effect on cells", "setting": "[2]; YO-PRO-1 uptake without ATP or without P2X7", "value": "toxic effect on the cells"},
      {"measurement": "YO-PRO-1 uptake in HEK-hP2X7 cells in the absence of ATP", "setting": "[2]; drug alone", "value": "could induce YO-PRO-1 uptake"}
    ]}
  ]
}
